Measurements as given in ChEMBL document CHEMBL1201862, “PubChem BioAssay data set” (2004).
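Five compound concentrations were applied to cells in 96-well plates for 48 hours; endpoints were derived by simple linear interpolation of the resulting dose-response curve. At the GI50, growth is halved.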 Active and inactive are the calls of the source. Rule as the data show it: active = GI50 up to about 1.1 µM and inactive = higher.

Legend:
Assay in all cases: NCI-60 cell line screen, 48 h
COLO 205 = system: COLO 205
786-0 = system: 786-0
SNB-75 = system: SNB-75
HOP-62 = system: HOP-62
HCT-116 = system: HCT-116
SK-MEL-2 = system: SK-MEL-2
ACHN = system: ACHN
A549 = system: A549
DLD-1 = system: DLD-1
EKVX = system: EKVX
SF-268 = system: SF-268
LXFL 529 = system: LXFL 529
TK-10 = system: TK-10
UACC-62 = system: UACC-62
NCI-H522 = system: NCI-H522
KM12 = system: KM12
DMS-114 = system: DMS-114
HCT-15 = system: HCT-15
UACC-257 = system: UACC-257
HCC 2998 = system: HCC 2998
RXF 393 = system: RXF 393
SNB-19 = system: SNB-19
HL-60 = system: HL-60
OVCAR-4 = system: OVCAR-4
CAKI-1 = system: CAKI-1
RPMI-8226 = system: RPMI-8226
KM-20L2 = system: KM-20L2
OVCAR-8 = system: OVCAR-8
A498 = system: A498
M14 = system: M14
SW-620 = system: SW-620
NCI-H460 = system: NCI-H460
NCI-H23 = system: NCI-H23
UO-31 = system: UO-31
SNB-78 = system: SNB-78
K562 = system: K562
SF-539 = system: SF-539
OVCAR-5 = system: OVCAR-5
CCRF-CEM = system: CCRF-CEM
MOLT-4 = system: MOLT-4
M19-MEL = system: M19-MEL
U-251 = system: U-251
SK-MEL-5 = system: SK-MEL-5
OVCAR-3 = system: OVCAR-3
IGROV-1 = system: IGROV-1
LOX IMVI = system: LOX IMVI
SK-OV-3 = system: SK-OV-3
Malme-3M = system: Malme-3M
SK-MEL-28 = system: SK-MEL-28
SN12C = system: SN12C
HOP-18 = system: HOP-18
DMS-273 = system: DMS-273
SR = system: SR
NCI-H226 = system: NCI-H226
XF498 = system: XF498

## O=C1NC(=O)C(C(=O)C(=O)Nc2cccc(C(F)(F)F)c2)C(=O)N1
COLO 205
  GI50: > 100 µM (inactive)
786-0
  GI50: > 100 µM (inactive)
SNB-75
  GI50: 52.8 µM (inactive)
HOP-62
  GI50: > 100 µM (inactive)
HCT-116
  GI50: > 100 µM (inactive)
SK-MEL-2
  GI50: > 100 µM (inactive)
ACHN
  GI50: > 100 µM (inactive)
A549
  GI50: > 100 µM (inactive)
DLD-1
  GI50: > 100 µM (inactive)
EKVX
  GI50: > 100 µM (inactive)
SF-268
  GI50: > 100 µM (inactive)
LXFL 529
  GI50: > 100 µM (inactive)
TK-10
  GI50: > 100 µM (inactive)
UACC-62
  GI50: > 100 µM (inactive)
NCI-H522
  GI50: > 100 µM (inactive)
KM12
  GI50: > 100 µM (inactive)
DMS-114
  GI50: > 100 µM (inactive)
HCT-15
  GI50: > 100 µM
UACC-257
  GI50: 53 µM (inactive)
HCC 2998
  GI50: > 100 µM (inactive)
RXF 393
  GI50: > 100 µM (inactive)
SNB-19
  GI50: > 100 µM (inactive)
HL-60
  GI50: > 100 µM (inactive)
OVCAR-4
  GI50: > 100 µM (inactive)
CAKI-1
  GI50: > 100 µM (inactive)
RPMI-8226
  GI50: > 100 µM (inactive)
KM-20L2
  GI50: > 100 µM (inactive)
OVCAR-8
  GI50: > 100 µM (inactive)
A498
  GI50: > 100 µM (inactive)
M14
  GI50: > 100 µM (inactive)
SW-620
  GI50: > 100 µM (inactive)
NCI-H460
  GI50: > 100 µM (inactive)
NCI-H23
  GI50: > 100 µM (inactive)
UO-31
  GI50: > 100 µM (inactive)
SNB-78
  GI50: > 100 µM (inactive)
K562
  GI50: > 100 µM (inactive)
SF-539
  GI50: > 100 µM (inactive)
OVCAR-5
  GI50: > 100 µM (inactive)
CCRF-CEM
  GI50: > 100 µM (inactive)
MOLT-4
  GI50: > 100 µM (inactive)
M19-MEL
  GI50: > 100 µM (inactive)
U-251
  GI50: > 100 µM (inactive)
SK-MEL-5
  GI50: > 100 µM (inactive)
OVCAR-3
  GI50: > 100 µM (inactive)
IGROV-1
  GI50: > 100 µM (inactive)
LOX IMVI
  GI50: > 100 µM (inactive)
SK-OV-3
  GI50: > 100 µM (inactive)
Malme-3M
  GI50: > 100 µM (inactive)
SK-MEL-28
  GI50: > 100 µM (inactive)

## CC(=O)O[C@@H]1C2C(=O)OC(=O)C2C2CCC[C@]23O[C@H]13 (stereo partly drawn)
SN12C
  GI50: > 100 µM (inactive)
COLO 205
  GI50: > 100 µM (inactive)
786-0
  GI50: > 100 µM (inactive)
SNB-75
  GI50: > 100 µM (inactive)
HOP-62
  GI50: > 100 µM (inactive)
HCT-116
  GI50: > 100 µM (inactive)
SK-MEL-2
  GI50: > 100 µM (inactive)
ACHN
  GI50: > 100 µM (inactive)
HOP-18
  GI50: > 100 µM (inactive)
A549
  GI50: > 100 µM (inactive)
DLD-1
  GI50: > 100 µM (inactive)
SF-268
  GI50: > 100 µM (inactive)
LXFL 529
  GI50: > 100 µM (inactive)
TK-10
  GI50: > 100 µM (inactive)
UACC-62
  GI50: > 100 µM (inactive)
NCI-H522
  GI50: > 100 µM (inactive)
KM12
  GI50: > 100 µM (inactive)
DMS-273
  GI50: > 100 µM (inactive)
DMS-114
  GI50: > 100 µM (inactive)
HCT-15
  GI50: > 100 µM
SR
  GI50: > 100 µM (inactive)
UACC-257
  GI50: > 100 µM (inactive)
HCC 2998
  GI50: > 100 µM (inactive)
RXF 393
  GI50: > 100 µM (inactive)
SNB-19
  GI50: > 100 µM (inactive)
HL-60
  GI50: > 100 µM (inactive)
OVCAR-4
  GI50: > 100 µM (inactive)
CAKI-1
  GI50: > 100 µM (inactive)
RPMI-8226
  GI50: > 100 µM (inactive)
KM-20L2
  GI50: > 100 µM (inactive)
OVCAR-8
  GI50: > 100 µM (inactive)
A498
  GI50: > 100 µM (inactive)
M14
  GI50: > 100 µM (inactive)
SW-620
  GI50: > 100 µM (inactive)
NCI-H460
  GI50: > 100 µM (inactive)
UO-31
  GI50: > 100 µM (inactive)
SNB-78
  GI50: > 100 µM (inactive)
K562
  GI50: > 100 µM (inactive)
SF-539
  GI50: > 100 µM (inactive)
CCRF-CEM
  GI50: > 100 µM (inactive)
MOLT-4
  GI50: > 100 µM (inactive)
M19-MEL
  GI50: > 100 µM (inactive)
U-251
  GI50: > 100 µM (inactive)
SK-MEL-5
  GI50: > 100 µM (inactive)
OVCAR-3
  GI50: > 100 µM (inactive)
IGROV-1
  GI50: > 100 µM (inactive)
NCI-H226
  GI50: > 100 µM (inactive)
SK-OV-3
  GI50: > 100 µM (inactive)
Malme-3M
  GI50: > 100 µM (inactive)
SK-MEL-28
  GI50: > 100 µM (inactive)

## COc1cc(CNc2ccc(C)cc2)cc(OC)c1OC
COLO 205
  GI50: 0.151 µM (active)
786-0
  GI50: 0.376 µM (active)
SNB-75
  GI50: 0.21 µM (active)
HOP-62
  GI50: 0.44 µM (active)
SK-MEL-2
  GI50: 0.417 µM (active)
A549
  GI50: 0.423 µM (active)
XF498
  GI50: 1.29 µM (inactive)
DLD-1
  GI50: 0.375 µM (active)
SF-268
  GI50: 0.615 µM (active)
LXFL 529
  GI50: 0.46 µM (active)
DMS-273
  GI50: 0.0925 µM (active)
DMS-114
  GI50: 0.225 µM (active)
UACC-257
  GI50: 7.05 µM (inactive)
RXF 393
  GI50: 0.301 µM (active)
SNB-19
  GI50: 0.356 µM (active)
HL-60
  GI50: 0.0948 µM (active)
RPMI-8226
  GI50: 0.5 µM (active)
KM-20L2
  GI50: 0.159 µM (active)
OVCAR-8
  GI50: 0.65 µM (active)
SW-620
  GI50: 0.11 µM (active)
NCI-H460
  GI50: 0.471 µM (active)
NCI-H23
  GI50: 0.277 µM (active)
UO-31
  GI50: 0.843 µM (active)
K562
  GI50: 0.148 µM (active)
OVCAR-5
  GI50: 1.02 µM (active)
CCRF-CEM
  GI50: 0.259 µM (active)
MOLT-4
  GI50: 0.175 µM (active)
M19-MEL
  GI50: 0.252 µM (active)
U-251
  GI50: 0.252 µM (active)
SK-MEL-5
  GI50: 0.923 µM (active)
OVCAR-3
  GI50: 0.179 µM (active)
IGROV-1
  GI50: 0.577 µM (active)
LOX IMVI
  GI50: 0.46 µM (active)
SK-OV-3
  GI50: 0.251 µM (active)
